Entries after “also recorded” stand apart in the source; their conditions may differ.
Legend:
Assay type in all cases: in vivo
[1] = system: corn plants; test: Root structure of DFU-treated vs untreated corn plants (FIG. 1); conditions: treated vs untreated corn plant
Excerpt: FIG. 1 is a photograph illustrating root structure of two corn plants, one treated (on right) with DFU, the other untreated (on left); It has been discovered that application of DFU to growing crop plants results in a large increase in the functional capacity of the crop plant root system because of selective root tissue synthesis and development of fine small feeder roots that operate to take up water and minerals from the soil environment. Treatment of crop plant tissue described herein includes exogenous treatment of the crop plants with a DFU solution at a rate of between 0.1 to 10 pints/acre over the crop growth stages or as a preferred rate of 0.5 to 1.5 pints per acre. Preferably, the concentration of the DFU which is applied at the above rates is from stock solutions of 0.001 Molar to 1.0 Molar with a preferred Molarity of 0.001 Molar to 0.05 Molar. FIG. 1 is a photograph of two plants: the plant on the left had no treatment with DFU; the plant on the right hand side was treated with DFU. […] The treated plant on the right hand side of FIG. 1 is in contrast to the thicker deeper roots of the plant on the left hand side which has fewer “root tips” for water and nutrient uptake from the soil. The DFU treated plant on the right has smaller feeder roots for water, mineral, and nutrient uptake from the roots to the shoots.

[2] = system: corn plant; test: Soil moisture around feeder roots of corn plants (FIGS. 2, 3); conditions: DFU-treated (FIG. 3) vs untreated (FIG. 2) corn plant
Excerpt: FIG. 2 is a photograph of a root structure showing dry soil around the roots of a corn plant that has not been treated with DFU; FIG. 3 is a photograph of a root structure showing moist soil around the roots of a corn plant (grown under the same conditions as that of FIG. 2) treated with DFU; It has also been discovered that applying DFU to crop plants causes enhancement of crop plant cellular water and soil moisture around the feeder roots. Compare the feeder root system of FIG. 2 of a plant that has had no DFU applied to it with the feeder root system of FIG. 3 of a plant that has DFU applied to it.

[3] = system: corn seedlings; test: Guttation on corn seedling leaves (FIG. 4); conditions: as a function of DFU amounts
Excerpt: FIG. 4 illustrates the results of increased guttation on seedling leaves as a function of DFU amounts.

[4] = system: corn plants; test: Survival of corn plants in a flooded field (FIGS. 5-13); conditions: corn field flooded by excessive rain; in furrow DFU
Excerpt: The method of applying DFU to crop plants, which has been covered by natural rain or other types of flooding is a distinctive enhanced feature of DFU treatment of crop plants to ameliorate damaging effects of field soil excessive moisture such as flooding. The most efficacious method of DFU treatment for this feature is that of an “in furrow” application into the open soil furrow at time of crop seed sowing with a spray of DFU at a dose of one to one and a half pints per acre over the seed and unto the soil of the open furrow before closure of the open furrow and application of pressure to the closed furrow for optimal soil contact with the seed. […] DFU is preferably sprayed at a dose of 1 pint per acre to 1½ pints per acre over the seed and onto the soil of the open furrow before closure of the open furrow and application of pressure to the closed furrow for optional soil contact with the seed. FIG. 5 is a photograph of a corn field completely flooded by excessive rain. FIGS. 6 and 7 show corn plants treated with DFU after the excessive water has retreated somewhat. The corn plants are seen to be growing. […] FIG. 9 is a photograph of a corn field which has not been treated with DFU, but after flooding, has been almost completely killed because of the water. FIG. 10 is a close-up photo of corn that has been killed because of flooding. […]

[5] = system: corn plant; test: Internodal stalk volume of corn plants (Table 1)
Experimental: It has also been discovered that DFU treatment of corn plants increases the inter-nodal volume of corn plants. Table 1 below confirms that discovery where intermodal stalk volumes of untreated corn crop plants was calculated to be 311.71 cc per plant whereas the inter-nodal stalk volumes of the DFU-treated corn plant was 355.47, an increase of 14% over the control plant.

[6] = system: corn seedlings; test: Sealed barrel water use test with corn seedlings (FIG. 14)
Experimental: It has also been discovered that crops treated with DFU require less water for growing. See the results illustrated in FIG. 14. In two barrels that were sealed at the top, a precise amount of growing medium was added with appropriate fertilizer and a precise amount of water. […] Seven corn seedlings were germinated and grown in the growing medium in each of the barrels for a period of 37 days. At 37 days the fresh weight and dry weights of corn plants were determined. The graph on the right side of […] depicts the combined weight of the water and the plants growing out of the barrels. The graph on the left depicts the average amount of water needed to grow the treated vs the untreated corn, indicating a twenty eight percent savings with the DFU-treated plants contrasted to the untreated plants. The two barrels were constantly weighed electronically.

[7] = system: soybean plants; test: Soybean yield after DFU seed treatment (Table 2)
Excerpt: As further evidence the increase in crop production as a result of DFU treatment see Table 2 below. Untreated soybean plant yields were 52.5 bushels per acre. The DFU treated soybean plants yielded 111 bushels per acre. This represents an increase in […] of 111 percent.

[8] = system: soybean; test: Soybean yield with DFU and Quadris fungicide (Table 3)
Excerpt: Table 3 below illustrates the increased performance of herbicides and fungicides for crop plants by addition of DFU to the crops. Quadris™ fungicide (product of Syngenta Crop Protection, Inc.) was applied at the R1 stage of growth and gave a yield increase of 15 bushels per acre. DFU by itself increased soybean yields by 40 bushels per acre. DFU and Quadris applied together increased the yields by 52 bushels.

[9] = system: field corn cultivar DKC 66-96; test: Field corn yield, nitrogen fertilizer use efficiency (Table 4)
Excerpt: A total of 180 lb of nitrogen fertilizer/acre, with ½ of nitrogen applied at V4 (forth leaf) and ½ at V7 (seventh leaf) as a side dress (3 inches to the side of the plant and 3 inches below the soil surface). The field corn cultivar DKC 66-96 was planted on Feb. 11, 2013 and harvested on Jul. 12, 2013.

[10] = system: field corn; test: Field corn yield, foliar DFU at V4 along with Round-Up herbicide (Table 5); set-up: Yield rep1 / Yield rep2 / Yield rep3 / Yield rep4: unit not given here; conditions: for Yield Bu/acre: control 209
Excerpt: Table 5 below illustrates the effect of foliar application of DFU applied at V4 (4th leaf stage of crop growth) at either the rate of ½ pt/acre along with the herbicide Round-Up™ herbicides on field corn. Both the control and the treatments also had 0.9 lb of ammonium sulfate applied along with the herbicide and di-formylurea (DFU). The field corn was planted in southern Texas on Mar. 3, 2012, at a population density of 35,000 plants per acre. […] The large difference was in the harvestable yields of the di-formyl urea treated plants over the control which received the herbicide only.

[11] = system: corn crop; test: Corn crop yield with DFU combined with nitrogen fertilizer; conditions: DFU combined with nitrogen fertilizer to the soil vs nitrogen fertilizer alone
Excerpt: Enhanced tissue development in DFU treated corn plants is illustrated by the experiment illustrated in FIG. 15.

[12] = soybean, seed treatment 2 oz DFU/cwt of seed
[13] = soybean yield, DFU 1 pt/acre, Quadris recommended rate
[14] = field corn, seed treat 2 oz/cwt, V4 ½ pt, V9 1 pt

In the case of `O=CNC(=O)NC=O` [DFU, diformylurea], the “fine small feeder root system development” value [1] is reported as “significantly greater fine small feeder root system development”, the “soil moisture around the root system” value [2] is reported as “Much more moist soil” and the “guttation of water on plant leaves” value [3] is reported as “increases guttation”. For the same compound, the “survival of plants in flooded field” value [4] was “prevents drowning of the plants; also recorded: survived the flood”, the “Internodal Volume (cc)” value ([5]; Growth Stage V1) was 33.49 cc and the “Internodal Volume (cc)” value ([5]; Growth Stage V2) was 45.02 cc. For the same compound, the “Internodal Volume (cc)” value ([5]; Growth Stage V3) was 55.76 cc, the “Internodal Volume (cc)” value ([5]; Growth Stage V4) was 59.14 cc and the “Internodal Volume (cc)” value ([5]; Growth Stage V5) was 54.34 cc. For the same compound, the “Internodal Volume (cc)” value ([5]; Growth Stage V6) was 47.79 cc, the “Internodal Volume (cc)” value ([5]; Growth Stage V7) was 35.02 cc and the “Internodal Volume (cc)” value ([5]; Growth Stage V8) was 24.9 cc. For the same compound, the “inter-nodal stalk volumes per plant” value ([5]; calculated total, untreated 311.71) was 355.47 cc per plant, the “increase of inter-nodal stalk volume over the control plant” value ([5]; vs untreated corn plant) was 14% and the “savings in average amount of water needed to grow corn” value ([6]; 0.0015% solution of DFU, 37 days, vs untreated) was “twenty eight”. For the same compound, the “enhanced water use efficiency” value ([6]; crop plants treated with DFU) was “up to 28%”, the “increase in water use efficiency” value ([7]; soybean yield vs untreated 52.5 bushels per acre) was 111% and the “Rep 1 Yield” value [7, 12] was 109. The “Rep2 Yield” value [7, 12] was 112, the “Rep3 Yield” value [7, 12] was 111 and the “Rep4 Yield” value [7, 12] was 112. For the same compound, the “Average Yield bu per acre” value ([7]; soybean, seed treatment 2 oz DFU/cwt of seed, control 52.5) was 111 bu per acre, the soybean plant yield ([7]; untreated 52.5) was 111 bushels per acre and the “Soybean Yield Bu/acre” value ([8]; DFU @ 1 pt/acre, Quadris @ recommended rate at R1, control 55.0) was 95.1 Bu/acre. For the same compound, the “Rep 1” value [8, 13] was 92.7, the “Rep 2” value [8, 13] was 95.8 and the “Rep 3” value [8, 13] was 89.9. The “Rep 4” value [8, 13] was 102, the soybean yield increase ([8]; vs control) was 40 bushels per acre and the “Rep 1 Yield” value [9, 14] was 175.5. For the same compound, the “Rep2 Yield” value [9, 14] was 188, the “Rep3 Yield” value [9, 14] was 178.7 and the “Rep4 Yield” value [9, 14] was 185.1. For the same compound, the “Average Yield bu per acre” value ([9]; field corn, seed treat 2 oz/cwt, V4 ½ pt, V9 1 pt, 180 lb nitrogen fertilizer/acre, control 112.6) was 180.6 bu per acre, the “increase in efficiency of use of the available nitrogen mineral fertilizer” value ([9]; harvested yield vs untreated control) was 60.7% and the Yield % increase ([10]; V4 foliar 1 pt/acre) was 21.5%. For the same compound, the “Yield increase bu/acre vs control” value ([10]; V4 foliar 1 pt/acre) was 45 bu/acre, the “Yield rep1” value ([10]; V4 foliar 1 pt/acre) was 246 and the “Yield rep2” value ([10]; V4 foliar 1 pt/acre) was 251. For the same compound, the “Yield rep3” value ([10]; V4 foliar 1 pt/acre) was 256, the “Yield rep4” value ([10]; V4 foliar 1 pt/acre) was 264 and the “Yield Bu/acre” value ([10]; V4 foliar 1 pt/acre with Round-Up and ammonium sulfate) was 254 Bu/acre. For the same compound, the Yield % increase ([10]; V4 foliar ½ pt/acre) was 13.9%, the “Yield increase bu/acre vs control” value ([10]; V4 foliar ½ pt/acre) was 29 bu/acre and the “Yield rep1” value ([10]; V4 foliar ½ pt/acre) was 227. The “Yield rep2” value ([10]; V4 foliar ½ pt/acre) was 232, the “Yield rep3” value ([10]; V4 foliar ½ pt/acre) was 224 and the “Yield rep4” value ([10]; V4 foliar ½ pt/acre) was 237. For the same compound, the “Yield Bu/acre” value ([10]; V4 foliar ½ pt/acre with Round-Up and ammonium sulfate) was 230 Bu/acre and the “yield of the corn crop” value [11] was “significantly enhances yield”.
